Measured values from patent US20230053540A1, “TREATMENT OF LIVER INJURY” (Massachusetts Institute of Technology, priority 2019, published 2023).

Tested on: hepatocytes
Experiment: Seq-Well scRNA-Seq of hepatocytes after APAP overdose (signature scores, DEG vs untreated)
Assay type: in vivo, mouse
Settings: A6 vs UT

## CC(=O)Nc1ccc(O)cc1 [APAP, acetaminophen]
  Med13 A6logFC: 0.2949
  Med13 avg_logFC: 0.2949
  Med13 pct.1: 0.325
  Megf9 A6logFC: 0.2769
  Megf9 avg_logFC: 0.2769
  Megf9 pct.1: 0.289
  Mettl7b avg_logFC: −0.4527
  Mettl7b pct.1: 0.647
  Mettl20 avg_logFC: −0.3314
  Mettl20 pct.1: 0.119
  Mfsd2a avg_logFC: 0.6661
  Mgea5 A6logFC: 0.3263
  Mgea5 avg_logFC: 0.3263
  Mgea5 pct.1: 0.413
  Mgst1 avg_logFC: −1.06
  Minos1 avg_logFC: −0.4555
  Minos1 pct.1: 0.332
  Mlycd avg_logFC: −0.2909
  Mlycd pct.1: 0.329
  Mmp8 avg_logFC: 0.359
  Mmp14 avg_logFC: 0.2889
  Mmp14 pct.1: 0.253
  Mpc2 avg_logFC: −0.4828
  Mpc2 pct.1: 0.599
  Mpeg1 avg_logFC: 0.4935
  Mpeg1 pct.1: 0.263
  Mrap avg_logFC: 0.8841
  Mrp63 avg_logFC: −0.4422
  Mrp63 pct.1: 0.277
  Mrpl11 A6logFC: −0.2685
  Mrpl15 A6logFC: −0.2912
  Mrpl20 A6logFC: −0.3093
  Mrpl20 avg_logFC: −0.3093
  Mrpl20 pct.1: 0.301
  Mrpl28 A6logFC: −0.2699
  Mrpl28 avg_logFC: −0.2699
  Mrpl28 pct.1: 0.229
  Mrpl33 A6logFC: −0.2654
  Mrpl34 A6logFC: −0.2838
  Mrpl41 A6logFC: −0.2674
  Mrpl42 A6logFC: −0.2845
  Mrps12 A6logFC: −0.2504
  Mrps12 avg_logFC: −0.2504
  Mrps12 pct.1: 0.193
  Mrps24 avg_logFC: −0.3904
  Mrps24 pct.1: 0.31
  Msrb1 avg_logFC: −0.599
  Mt1 avg_logFC: 2.388
  Mt2 avg_logFC: 2.063
  Mthfd2 avg_logFC: 0.2624
  Mug2 avg_logFC: 0.3683
  Mug2 pct.1: 0.776
  Mup3 avg_logFC: −0.7035
  Mup4 avg_logFC: −0.9953
  Mup5 avg_logFC: −1.237
  Mup6 avg_logFC: −1.872
  Mup7 avg_logFC: −0.9414
  Mup8 avg_logFC: −0.7526
  Mup8 pct.1: 0.098
  Mup9 avg_logFC: −2.004
  Mup11 avg_logFC: −3.214
  Mup12 avg_logFC: −1.27
  Mup15 avg_logFC: −1.316
  Mup16 avg_logFC: −1.602
  Mup17 avg_logFC: −2.354
  Mup18 avg_logFC: −1.628
  Mup19 avg_logFC: −2.396
  Mup21 avg_logFC: −0.8272
  Mvd A6logFC: −0.2704
  Mxd1 A6logFC: 0.2978
  Mybbp1a avg_logFC: 0.4312
  Mybbp1a pct.1: 0.396
  Myeov2 A6logFC: −0.3052
  Myeov2 avg_logFC: −0.3052
  Myeov2 pct.1: 0.303
  Myh9 avg_logFC: 1.16
  Myl12a avg_logFC: 0.3908
  Myl12a pct.1: 0.461
  Myo1b A6logFC: 0.2624
  Myo1e avg_logFC: 0.6143
  Naa50 A6logFC: 0.2657
  Naa50 avg_logFC: 0.2657
  Naa50 pct.1: 0.444
  Naprt1 A6logFC: −0.3381
  Nars avg_logFC: 0.4378
  Nars pct.1: 0.606
  Ncl avg_logFC: 0.4845
  Ncl pct.1: 0.69
  Ndufa2 avg_logFC: −0.3965
  Ndufa2 pct.1: 0.492
  Ndufa3 avg_logFC: −0.4116
  Ndufa3 pct.1: 0.344
  Ndufa4 avg_logFC: −0.6831
  Ndufa5 A6logFC: −0.252
  Ndufa5 avg_logFC: −0.252
  Ndufa5 pct.1: 0.418
  Ndufa6 avg_logFC: −0.6136
  Ndufa7 avg_logFC: −0.5559
  Ndufa7 pct.1: 0.406
  Ndufa13 avg_logFC: −0.4388
  Ndufa13 pct.1: 0.549
  Ndufb3 A6logFC: −0.3272
  Ndufb6 avg_logFC: −0.5077
  Ndufb6 pct.1: 0.475
  Ndufb9 avg_logFC: −0.5038
  Ndufb9 pct.1: 0.661
  Ndufb10 A6logFC: −0.3004
  Ndufc2 avg_logFC: −0.4253
  Ndufc2 pct.1: 0.36
  Ndufs4 A6logFC: −0.3132
  Ndufs6 avg_logFC: −0.5379
  Ndufs6 pct.1: 0.482
  Ndufv2 A6logFC: −0.3276
  Ndufv2 avg_logFC: −0.3276
  Ndufv2 pct.1: 0.461
  Neat1 avg_logFC: 0.6374
  Neat1 pct.1: 0.31
  Nek7 A6logFC: 0.2911
  Nek7 avg_logFC: 0.2911
  Nek7 pct.1: 0.394
  Net1 A6logFC: 0.3479
  Nid1 avg_logFC: 0.3426
  Nit2 avg_logFC: −0.4859
  Nit2 pct.1: 0.301
  Nolc1 avg_logFC: 0.4722
  Nolc1 pct.1: 0.363
  Nop56 avg_logFC: 0.2657
  Nop56 pct.1: 0.282
  Nop58 avg_logFC: 0.6634
  Nploc4 A6logFC: 0.2918
  Nploc4 avg_logFC: 0.2918
  Nploc4 pct.1: 0.351
  Nqo2 A6logFC: −0.2678
  Nqo2 avg_logFC: −0.2678
  Nqo2 pct.1: 0.317
  Nr0b2 avg_logFC: −0.293
  Nr0b2 pct.1: 0.086
  Nr1i3 avg_logFC: −0.4127
  Nr1i3 pct.1: 0.165
  Nr2f6 avg_logFC: −0.3754
  Nr2f6 pct.1: 0.234
  Nrip1 avg_logFC: 0.2729
  Nrip1 pct.1: 0.246
  Nucks1 A6logFC: 0.3558
  Nudt4 A6logFC: 0.2542
  Nudt7 avg_logFC: −1.564
  Oaf avg_logFC: −0.7329
  Oat avg_logFC: −1.225
  PM20l1 avg_logFC: 0.3085
  PM20l1 pct.1: 0.372
  Pa2g4 A6logFC: 0.2893
  Pa2g4 avg_logFC: 0.2893
  Pa2g4 pct.1: 0.492
  Pabpc1 avg_logFC: 0.4101
  Pabpc1 pct.1: 0.697
  Pah avg_logFC: −0.5221
  Pak2 avg_logFC: 0.2815
  Pak2 pct.1: 0.308
  Papss2 A6logFC: −0.2545
  Papss2 avg_logFC: −0.2545
  Papss2 pct.1: 0.337
  Paqr9 A6logFC: −0.3323
  Park7 avg_logFC: −0.2602
  Park7 pct.1: 0.601
  Pbld1 avg_logFC: −0.4425
  Pbld1 pct.1: 0.315
  Pcbd1 avg_logFC: −0.6878
  Pck1 avg_logFC: −0.6522
  Pcm1 A6logFC: 0.2654
  Pcm1 avg_logFC: 0.2654
  Pcm1 pct.1: 0.274
  Pde3b A6logFC: −0.259
  Pde3b avg_logFC: −0.259
  Pde3b pct.1: 0.243
  Pdia4 avg_logFC: −0.2719
  Pdia4 pct.1: 0.43
  Pdia6 avg_logFC: −0.39
  Pdia6 pct.1: 0.47
  Pdzd8 A6logFC: 0.2863
  Pdzd8 avg_logFC: 0.2863
  Pdzd8 pct.1: 0.36
  Pecr avg_logFC: −0.3981
  Pecr pct.1: 0.446
  Pet100 A6logFC: −0.28
  Pfkfb2 avg_logFC: 0.29
  Pfkfb2 pct.1: 0.26
  Pgls A6logFC: −0.2747
  Pgls avg_logFC: −0.2747
  Pgls pct.1: 0.22
  Phf20l1 A6logFC: 0.3085
  Phlda1 avg_logFC: 0.5492
  Pi4k2a A6logFC: 0.3536
  Picalm avg_logFC: 0.7545
  Pigr avg_logFC: 0.3487
  Pigr pct.1: 0.947
  Pkp4 A6logFC: 0.323
  Pkp4 avg_logFC: 0.323
  Pkp4 pct.1: 0.401
  Pla2g7 avg_logFC: 0.2823
  Pla2g7 pct.1: 0.119
  Plbd2 A6logFC: 0.2649
  Plbd2 avg_logFC: 0.2649
